The source of these data is US20230331673A1, “COMPOSITION OF COMPOUNDS THAT MODULATE CELL METABOLISM AND METHODS OF USE” (CRESCENTA BIOSCIENCES, priority 2020, published 2023).

Usually inhibition stands for the share of the control response that was lost under treatment.

Test [1] relates to differentiated 3T3-L1 mouse adipocyte cells. As to the kind of experiment: Adipocyte glucose consumption in differentiated 3T3-L1 mouse adipocyte cells (loss of glucose from medium, colorimetric). Particulars: compound 10 μM, 22 to 24 hours, differentiated 3T3-L1 adipocytes, compound/DMSO, read-out: Glucose consumption (fold change) Mean. The format is cell-based. In short, it runs like this:
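3T3-L1 cells were differentiated with rosiglitazone, dexamethasone, IBMX and insulin, then used on day 11 or 12. Medium glucose was measured colorimetrically, and consumption was given as mean fold change versus DMSO ± SD.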

The target of test [2] is T1, His6 tagged human recombinant FABP4 (Homo sapiens, UniProt P15090).
T1 construct: purchased Cayman Chemicals 10009549
As to the kind of experiment: FABP4 Tb TR-FRET assay: displacement of BODIPY FL C12 fatty acid from His6-FABP4. Particulars: triplicates, inhibition of BODIPY FL C12 binding. The text has this:
Activity of compounds with FABP4 was profiled using a Terbium (Tb) based time resolved fluorescence energy transfer (TR-FRET) assay. The assay measures the compound mediated displacement of the fluorescent fatty acid BODIPY FL C12 (Thermo Fisher; catalog number D3822) from His6 tagged human recombinant FABP4 (His6-FABP4; Cayman Chemicals, catalog number 10009549) via recording the energy transfer from TB donor molecule on anti-His6-tag antibody to acceptor BODIPY moiety. Briefly, compounds were prepared at a concentration of 0.362 mM and 0.0362 mM, and BODIPY FL C12 was prepared at 4.2 μM, in DMSO. 1.2 μL of each compound or DMSO (vehicle control) and 1.2 μL of BODIPY FL C12 were added into the wells of a 384-well black polypropylene plate. His6-FABP4 and Tb anti-His6 antibody were prepared in the assay buffer (25 mM Tris/HCl, pH 7.4, 0.4 mg/ml γ-globulins, 0.010% NP-40, 1 mM DTT) at a concentration of 83 nM and 49.6 nM, respectively. The protein and antibody solutions were then mixed at a ratio of 34:7 (v/v) and incubated on ice for 30 minutes. The assay was initiated by adding 41 μL of the resulting protein/antibody solution into the wells containing the compounds and BODIPY FL C12. The plate was centrifuged and incubated at room temperature for 10 min. The TR-FRET signals were recorded using an EnVision Multilabel plate reader (PerkinElmer; TB excitation 320 nm, BODIPY FL C12 emission 520 nm; TB emission 615 nm). Relative fluorescence ratio (520 nm*10,000/615 nm) were used to calculate the compound mediated inhibition of BODIPY C12 FL fatty acid binding to FABP4. […] Glucose consumption and FABP4 inhibition is shown below in Table 3 below.
For orientation: Time-resolved FRET reads energy transfer from a long-lived donor to a nearby acceptor.

T1 sequence (P15090 whole entry): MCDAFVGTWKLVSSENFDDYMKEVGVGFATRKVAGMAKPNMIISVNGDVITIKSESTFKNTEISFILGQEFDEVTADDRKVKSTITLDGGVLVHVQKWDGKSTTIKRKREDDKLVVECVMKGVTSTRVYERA

Regarding `CCCCCCC1CCCc2c(n(Cc3ccc4ocnc4c3)c3c(C(=O)O)cccc23)C1` (centres unmarked) [5-[(1,3-benzoxazol-5-yl)methyl]-7-hexyl-5H,6H,7H,8H,9H,10H-cyclohepta[b]indole-4-carboxylic acid], the fold induction at 10 µM in test [1] was 0.87. Further, the inhibition at 1 µM in test [2] (1 μM compound) turned out to be 88%.
Take `CCCCCCC1CCCc2c(n(Cc3ccccc3C#N)c3c(C(=O)O)cccc23)C1` (centres unmarked) [5-[(2-cyanophenyl)methyl]-7-hexyl-5H,6H,7H,8H,9H,10H-cyclohepta[b]indole-4-carboxylic acid]: the fold induction at 10 µM in test [1] was determined as 0.91. The inhibition at 1 µM in test [2] (1 μM compound) came to 88.5%.
Take `CCCCCCC1CCCc2c(n(Cc3cc(C#N)cs3)c3c(C(=O)O)cccc23)C1` (centres unmarked) [5-[(4-cyanothiophen-2-yl)methyl]-7-hexyl-5H,6H,7H,8H,9H,10H-cyclohepta[b]indole-4-carboxylic acid]: in test [2] (1 μM compound), the inhibition at 1 µM stood at 83.3%. The inhibition at 10 µM in test [2] (10 μM compound) is 89.4%.
Take `CCCCCCC1CCCc2c(n(Cc3cccc(OC)c3)c3c(C(=O)O)cccc23)C1` (centres unmarked) [7-hexyl-5-[(3-methoxyphenyl)methyl]-5H,6H,7H,8H,9H,10H-cyclohepta[b]indole-4-carboxylic acid]: the fold induction at 10 µM in test [1] was 1.13. In addition, the inhibition at 1 µM in test [2] (1 μM compound) was 93.2%.
In the case of `CCCCCCC1CCCc2c(n(Cc3cccc(C(F)(F)F)n3)c3c(C(=O)O)cccc23)C1` (centres unmarked) [7-hexyl-5-{[6-(trifluoromethyl)pyridin-2-yl]methyl}-5H,6H,7H,8H,9H,10H-cyclohepta[b]indole-4-carboxylic acid], the inhibition at 1 µM in test [2] (1 μM compound) came to 79.7%.
`CCCC1CCCc2c1c1cccc(C(=O)O)c1n2Cc1cccc(C(N)=O)c1` (centres unmarked) [9-[(3-carbamoylphenyl)methyl]-4-propyl-2,3,4,9-tetrahydro-1H-carbazole-8-carboxylic acid]: in test [1], the fold induction at 10 µM is 1.04.
Regarding `CCC1CCCc2c1n(Cc1cccc(C(=O)O)c1)c1c(C(=O)O)cccc21` (centres unmarked) [9-[(3-carboxyphenyl)methyl]-1-ethyl-2,3,4,9-tetrahydro-1H-carbazole-8-carboxylic acid], the fold induction at 10 µM in test [1] came out at 1.09.
Consider `CCC1CCc2c(n(Cc3cccc(C(=O)O)c3)c3c(C(=O)O)cccc23)C1` (centres unmarked) [9-[(3-carboxyphenyl)methyl]-2-ethyl-2,3,4,9-tetrahydro-1H-carbazole-8-carboxylic acid], for which the fold induction at 10 µM in test [1] is 1.11.
As to `CCCCCCC1CCc2c(n(Cc3cccc(C(=O)O)c3)c3c(C(=O)O)cccc23)C1` (centres unmarked) [9-[(3-carboxyphenyl)methyl]-2-hexyl-2,3,4,9-tetrahydro-1H-carbazole-8-carboxylic acid], in test [1], the fold induction at 10 µM came to 1.01. Further, the “FABP4 inhibition (%) at 1 μM Mean” value in test [2] (1 μM compound) was determined as 42.40%. In addition, the “FABP4 inhibition (%) at 10 μM Mean” value in test [2] (10 μM compound) turned out to be 80.24%.
In the case of `CCC1CCCc2c1c1cccc(C(=O)O)c1n2Cc1cccc(C(=O)O)c1` (centres unmarked) [9-[(3-carboxyphenyl)methyl]-4-ethyl-2,3,4,9-tetrahydro-1H-carbazole-8-carboxylic acid], the fold induction at 10 µM in test [1] is 1.06.
As for `CCCCCOC1CCCc2c1n(Cc1cccc(C#N)c1)c1c(C(=O)O)cccc21` (centres unmarked) [9-[(3-cyanophenyl)methyl]-1-(pentyloxy)-2,3,4,9-tetrahydro-1H-carbazole-8-carboxylic acid], the fold induction at 10 µM in test [1] amounted to 1.19.
As for `CCC1CCCc2c1n(Cc1cccc(C#N)c1)c1c(C(=O)O)cccc21` (centres unmarked) [9-[(3-cyanophenyl)methyl]-1-ethyl-2,3,4,9-tetrahydro-1H-carbazole-8-carboxylic acid], in test [1], the fold induction at 10 µM was 1.11.
As to `N#Cc1cccc(Cn2c3c(c4cccc(C(=O)O)c42)CCC(CCc2ccccc2)C3)c1` (centres unmarked) [9-[(3-cyanophenyl)methyl]-2-(2-phenylethyl)-2,3,4,9-tetrahydro-1H-carbazole-8-carboxylic acid], in test [2] (1 μM compound), the inhibition at 1 µM worked out at 92.7%.
With `CCCCCCC1CCc2c(n(Cc3cccc(C#N)c3)c3c(C(=O)O)cccc23)C1` (centres unmarked) [9-[(3-cyanophenyl)methyl]-2-hexyl-2,3,4,9-tetrahydro-1H-carbazole-8-carboxylic acid], the fold induction at 10 µM in test [1] was 1.16.
With `CCCCCC1CCc2c(n(Cc3cccc(C#N)c3)c3c(C(=O)O)cccc23)C1` (centres unmarked) [9-[(3-cyanophenyl)methyl]-2-pentyl-2,3,4,9-tetrahydro-1H-carbazole-8-carboxylic acid], the fold induction at 10 µM in test [1] worked out at 1.34.
On to `CCCC1CCc2c(n(Cc3cccc(C#N)c3)c3c(C(=O)O)cccc23)C1` (centres unmarked) [9-[(3-cyanophenyl)methyl]-2-propyl-2,3,4,9-tetrahydro-1H-carbazole-8-carboxylic acid], for which the fold induction at 10 µM in test [1] turned out to be 1.21.
`CCC1CCc2c(c3cccc(C(=O)O)c3n2Cc2cccc(C#N)c2)C1` (centres unmarked) [9-[(3-cyanophenyl)methyl]-3-ethyl-2,3,4,9-tetrahydro-1H-carbazole-8-carboxylic acid]: the fold induction at 10 µM in test [1] was determined as 1.08.
As for `CCCCCC1CCc2c(c3cccc(C(=O)O)c3n2Cc2cccc(C#N)c2)C1` (centres unmarked) [9-[(3-cyanophenyl)methyl]-3-pentyl-2,3,4,9-tetrahydro-1H-carbazole-8-carboxylic acid], the fold induction at 10 µM in test [1] was 1.17.
Consider `CCCC1CCc2c(c3cccc(C(=O)O)c3n2Cc2cccc(C#N)c2)C1` (centres unmarked) [9-[(3-cyanophenyl)methyl]-3-propyl-2,3,4,9-tetrahydro-1H-carbazole-8-carboxylic acid], for which, in test [1], the fold induction at 10 µM worked out at 1.2.
`N#Cc1cccc(Cn2c3c(c4cccc(C(=O)O)c42)C(CCc2ccccc2)CCC3)c1` (centres unmarked) [9-[(3-cyanophenyl)methyl]-4-(2-phenylethyl)-2,3,4,9-tetrahydro-1H-carbazole-8-carboxylic acid]: the fold induction at 10 µM in test [1] was determined as 1.1.
As for `CCCCCC1CCCc2c1c1cccc(C(=O)O)c1n2Cc1cccc(C#N)c1` (centres unmarked) [9-[(3-cyanophenyl)methyl]-4-pentyl-2,3,4,9-tetrahydro-1H-carbazole-8-carboxylic acid], in test [1], the fold induction at 10 µM is 1.13.
For `CCCCC1CCCCc2c1c1cccc(C(=O)O)c1n2Cc1cccc(C(N)=O)c1` (centres unmarked) [10-butyl-5-[(3-carbamoylphenyl)methyl]-5H,6H,7H,8H,9H,10H-cyclohepta[b]indole-4-carboxylic acid], the fold induction at 10 µM in test [1] turned out to be 1.14.
As for `CCCCC1CCCCc2c1c1cccc(C(=O)O)c1n2Cc1cccc(C#N)c1` (centres unmarked) [10-butyl-5-[(3-cyanophenyl)methyl]-5H,6H,7H,8H,9H,10H-cyclohepta[b]indole-4-carboxylic acid], the fold induction at 10 µM in test [1] turned out to be 1.24.
